Experimental data published in US20230085307A1, “PYRIDAZINONE COMPOUND AND HERBICIDE” (NISSAN CHEMICAL CORPORATION, priority 2019, published 2023).

Experiments:
[1] = test system: southern crabgrass; assay: Test Example 5: herbicidal effect by foliage application, plastic box (Table 20, symbol F); type: in vivo, southern crabgrass (Digitaria ciliaris); conditions: amount of applied herbicide 320 g/ha; foliage application after 14-day growth; evaluated three weeks after application
Summary of the method: (§1)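 Sow seeds spot-wise in sterilized diluvial soil; cover with ~1.5 cm soil. Grow 14 days in greenhouse, 25° C. to 30° C. Spray foliage with emulsion diluted to predetermined amount. Rate effect after 3 weeks.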

[2] = test system: redroot pigweed; assay: Test Example 5: herbicidal effect by foliage application, plastic box (Table 20, symbol N); type: in vivo, redroot pigweed (Amaranthus retroflexus); conditions: amount of applied herbicide 320 g/ha; foliage application after 14-day growth; evaluated three weeks after application
Summary of the method: as §1

[3] = test system: oval-leafed pondweed; assay: Test Example 1: herbicidal activity, application before weed generation under submerged conditions (Table 16, symbol C); type: in vivo, oval-leafed pondweed (Monochoria vaginalis); conditions: amount of applied herbicide 320 g/ha
Summary of the method: (§2)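 Alluvial soil was flooded to 4 cm depth, weed seeds were sown mixed and 2.5-leaf rice seedlings were transplanted. On sowing day, the compound's emulsion, diluted in water to a set dose, was applied to the water surface. Plants grew at 25–30 °C and were scored 0–5 after three weeks.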

[4] = test system: barnyard grass; assay: Test Example 5: herbicidal effect by foliage application, plastic box (Table 20, symbol H); type: in vivo, barnyard grass (Echinochloa crus-galli); conditions: amount of applied herbicide 320 g/ha; foliage application after 14-day growth; evaluated three weeks after application
Summary of the method: as §1

[5] = test system: wild oat; assay: Test Example 5: herbicidal effect by foliage application, plastic box (Table 20, symbol I); type: in vivo, wild oat (Avena fatua); conditions: amount of applied herbicide 320 g/ha; foliage application after 14-day growth; evaluated three weeks after application
Summary of the method: as §1

[6] = test system: blackgrass; assay: Test Example 5: herbicidal effect by foliage application, plastic box (Table 20, symbol J); type: in vivo, blackgrass (Alopecurus myosuroides); conditions: amount of applied herbicide 320 g/ha; foliage application after 14-day growth; evaluated three weeks after application
Summary of the method: as §1

[7] = test system: Italian ryegrass; assay: Test Example 5: herbicidal effect by foliage application, plastic box (Table 20, symbol K); type: in vivo, Italian ryegrass (Lolium multiflorum); conditions: amount of applied herbicide 320 g/ha; foliage application after 14-day growth; evaluated three weeks after application
Summary of the method: as §1

[8] = test system: blackgrass; assay: Test Example 4: herbicidal effect by soil treatment (Table 19, symbol J); type: in vivo, blackgrass (Alopecurus myosuroides); conditions: amount of applied herbicide 320 g/ha
Summary of the method: (§3)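 Applied as a water-diluted emulsion, the compound was sprayed onto soil covering newly sown seeds. Evaluation came three weeks after application, in a greenhouse held at 25° C. to 30° C.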

[9] = test system: southern crabgrass; assay: Test Example 4: herbicidal effect by soil treatment (Table 19, symbol F); type: in vivo, southern crabgrass (Digitaria ciliaris); conditions: amount of applied herbicide 320 g/ha
Summary of the method: as §3

[10] = test system: velvetleaf; assay: Test Example 5: herbicidal effect by foliage application, plastic box (Table 20, symbol M); type: in vivo, velvetleaf (Abutilon theophrasti); conditions: amount of applied herbicide 320 g/ha; foliage application after 14-day growth; evaluated three weeks after application
Summary of the method: as §1

[11] = test system: barnyard grass; assay: Test Example 4: herbicidal effect by soil treatment (Table 19, symbol H); type: in vivo, barnyard grass (Echinochloa crus-galli); conditions: amount of applied herbicide 320 g/ha
Summary of the method: as §3

[12] = test system: barnyard grass; assay: Test Example 3: herbicidal effect by foliage application, Wagner pot (Table 18, symbol H); type: in vivo, barnyard grass (Echinochloa crus-galli); conditions: 320 g/ha
Summary of the method: (§4)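 Plants were sown in alluvial soil held under 0.1–0.5 cm standing water and grown 14 days in a greenhouse at 25–30 °C. An emulsifiable formulation, water-diluted to the set dose, was then sprayed onto the foliage, and effects were scored three weeks later using previously defined criteria.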

[13] = test system: velvetleaf; assay: Test Example 4: herbicidal effect by soil treatment (Table 19, symbol M); type: in vivo, velvetleaf (Abutilon theophrasti); conditions: amount of applied herbicide 320 g/ha
Summary of the method: as §3

[14] = test system: green foxtail; assay: Test Example 4: herbicidal effect by soil treatment (Table 19, symbol G); type: in vivo, green foxtail (Setaria viridis); conditions: amount of applied herbicide 320 g/ha
Summary of the method: as §3

[15] = test system: rice flat sedge; assay: Test Example 3: herbicidal effect by foliage application, Wagner pot (Table 18, symbol E); type: in vivo, rice flat sedge (Cyperus iria); conditions: 320 g/ha
Summary of the method: as §4

[16] = test system: redroot pigweed; assay: Test Example 4: herbicidal effect by soil treatment (Table 19, symbol N); type: in vivo, redroot pigweed (Amaranthus retroflexus); conditions: amount of applied herbicide 320 g/ha
Summary of the method: as §3

[17] = test system: chickweed; assay: Test Example 4: herbicidal effect by soil treatment (Table 19, symbol P); type: in vivo, common chickweed (Stellaria media); conditions: amount of applied herbicide 320 g/ha
Summary of the method: as §3

[18] = test system: late watergrass; assay: Test Example 1: herbicidal activity, application before weed generation under submerged conditions (Table 16, symbol A); type: in vivo, late watergrass (Echinochloa oryzicola); conditions: amount of applied herbicide 320 g/ha
Summary of the method: as §2

[19] = test system: Japanese bulrush; assay: Test Example 1: herbicidal activity, application before weed generation under submerged conditions (Table 16, symbol B); type: in vivo, Japanese bulrush (Schoenoplectus juncoides); conditions: amount of applied herbicide 320 g/ha
Summary of the method: as §2

[20] = test system: windgrass; assay: Test Example 5: herbicidal effect by foliage application, plastic box (Table 20, symbol L); type: in vivo, windgrass (Apera spica-venti); conditions: amount of applied herbicide 320 g/ha; foliage application after 14-day growth; evaluated three weeks after application
Summary of the method: as §1

[21] = test system: green foxtail; assay: Test Example 5: herbicidal effect by foliage application, plastic box (Table 20, symbol G); type: in vivo, green foxtail (Setaria viridis); conditions: amount of applied herbicide 320 g/ha; foliage application after 14-day growth; evaluated three weeks after application
Summary of the method: as §1

[22] = test system: lambsquarters; assay: Test Example 5: herbicidal effect by foliage application, plastic box (Table 20, symbol O); type: in vivo, lambsquarters (Chenopodium album); conditions: amount of applied herbicide 320 g/ha; foliage application after 14-day growth; evaluated three weeks after application
Summary of the method: as §1

[23] = test system: lambsquarters; assay: Test Example 4: herbicidal effect by soil treatment (Table 19, symbol O); type: in vivo, lambsquarters (Chenopodium album); conditions: amount of applied herbicide 320 g/ha
Summary of the method: as §3

[24] = test system: windgrass; assay: Test Example 4: herbicidal effect by soil treatment (Table 19, symbol L); type: in vivo, windgrass (Apera spica-venti); conditions: amount of applied herbicide 320 g/ha
Summary of the method: as §3

[25] = test system: Italian ryegrass; assay: Test Example 4: herbicidal effect by soil treatment (Table 19, symbol K); type: in vivo, Italian ryegrass (Lolium multiflorum); conditions: amount of applied herbicide 320 g/ha
Summary of the method: as §3

[26] = test system: chickweed; assay: Test Example 5: herbicidal effect by foliage application, plastic box (Table 20, symbol P); type: in vivo, common chickweed (Stellaria media); conditions: amount of applied herbicide 320 g/ha; foliage application after 14-day growth; evaluated three weeks after application
Summary of the method: as §1

[27] = test system: persian speedwell; assay: Test Example 5: herbicidal effect by foliage application, plastic box (Table 20, symbol R); type: in vivo, Persian speedwell (Veronica persica); conditions: amount of applied herbicide 320 g/ha; foliage application after 14-day growth; evaluated three weeks after application
Summary of the method: as §1

[28] = test system: Chinese sprangletop; assay: Test Example 3: herbicidal effect by foliage application, Wagner pot (Table 18, symbol D); type: in vivo, chinese sprangletop (Leptochloa chinensis); conditions: 320 g/ha
Summary of the method: as §4

[29] = test system: wild oat; assay: Test Example 4: herbicidal effect by soil treatment (Table 19, symbol I); type: in vivo, wild oat (Avena fatua); conditions: amount of applied herbicide 320 g/ha
Summary of the method: as §3

CCOc1cc(F)ccc1-c1sc2cc(F)c(F)cc2c1-c1c(O)c(C)nn(C)c1=O [5-031]
Herbicidal effect by foliage application, F: southern crabgrass [1]: 5 (Herbicidal rate of 90% or more (almost completely withered))
Herbicidal effect by foliage application, N: redroot pigweed [2]: 5 (Herbicidal rate of 90% or more (almost completely withered))
Herbicidal effect, C: oval-leafed pondweed [3]: 0 (Herbicidal rate of 5% or less (almost no effect))
Herbicidal effect by foliage application, H: barnyard grass [4]: 5 (Herbicidal rate of 90% or more (almost completely withered))
Herbicidal effect by foliage application, I: wild oat [5]: 4 (Herbicidal rate of 70% or more and less than 90%)
Herbicidal effect by foliage application, J: blackgrass [6]: 5 (Herbicidal rate of 90% or more (almost completely withered))
Herbicidal effect by foliage application, K: Italian ryegrass [7]: 2 (Herbicidal rate of 20% or more and less than 40%)
J: blackgrass, herbicidal effect grade [8]: 3 (Herbicidal rate of 40% or more and less than 70%)
F: southern crabgrass, herbicidal effect grade [9]: 4 (Herbicidal rate of 70% or more and less than 90%)
Herbicidal effect by foliage application, M: velvetleaf [10]: 5 (Herbicidal rate of 90% or more (almost completely withered))
H: barnyard grass, herbicidal effect grade [11]: 3 (Herbicidal rate of 40% or more and less than 70%)
herbicidal effect on barnyard grass (H) [12]: 5 (Herbicidal rate of 90% or more (almost completely withered))
M: velvetleaf, herbicidal effect grade [13]: 4 (Herbicidal rate of 70% or more and less than 90%)
G: green foxtail, herbicidal effect grade [14]: 5 (Herbicidal rate of 90% or more (almost completely withered))
herbicidal effect on rice flat sedge (E) [15]: 5 (Herbicidal rate of 90% or more (almost completely withered))
N: redroot pigweed, herbicidal effect grade [16]: 5 (Herbicidal rate of 90% or more (almost completely withered))
P: chickweed, herbicidal effect grade [17]: 3 (Herbicidal rate of 40% or more and less than 70%)
Herbicidal effect, A: late watergrass [18]: 2 (Herbicidal rate of 20% or more and less than 40%)
Herbicidal effect, B: Japanese bulrush [19]: 0 (Herbicidal rate of 5% or less (almost no effect))
Herbicidal effect by foliage application, L: windgrass [20]: 5 (Herbicidal rate of 90% or more (almost completely withered))
Herbicidal effect by foliage application, G: green foxtail [21]: 5 (Herbicidal rate of 90% or more (almost completely withered))
Herbicidal effect by foliage application, O: lambsquarters [22]: 5 (Herbicidal rate of 90% or more (almost completely withered))
O: lambsquarters, herbicidal effect grade [23]: 5 (Herbicidal rate of 90% or more (almost completely withered))
L: windgrass, herbicidal effect grade [24]: 5 (Herbicidal rate of 90% or more (almost completely withered))
K: Italian ryegrass, herbicidal effect grade [25]: 0 (Herbicidal rate of 5% or less (almost no effect))
Herbicidal effect by foliage application, P: chickweed [26]: 5 (Herbicidal rate of 90% or more (almost completely withered))
Herbicidal effect by foliage application, R: persian speedwell [27]: 5 (Herbicidal rate of 90% or more (almost completely withered))
herbicidal effect on Chinese sprangletop (D) [28]: 4 (Herbicidal rate of 70% or more and less than 90%)
I: wild oat, herbicidal effect grade [29]: 1 (Herbicidal rate of 5% or more and less than 20%)
